“Also recorded” adds a separate entry of the source.
Tested on: experimental autoimmune encephalomyelitis (EAE) mice
Assay: EAE model of MS, disease score, treatment from day of disease onset (score >1)
Type: in vivo, C57BL/6 mice
Protocol: Experimental detail: EAE was induced in female C57BL/6 mice as described in Example 1. On the day of disease onset (score >1, dotted line), mice were started on daily treatment with vehicle only (Veh) or nalmefene (NaIM) at 0.1, 0.03, 0.01, or 0.003 mg/kg by i.p. injection. […]
(§1) Experimental detail: EAE was induced in female C57BL/6 mice as described in Example 1. On the day of disease onset (score >1, dotted line), mice were treated with vehicle only (daily), nalmefene (0.01 mg/kg by i.p. injection daily), the KOR antagonist norBNI (10 mg/kg by i.p. injection weekly), both nalmefene and norBNI, or the MOR antagonist BFNA (10 mg/kg by i.p. injection weekly).
as §1, with “weekly). The peak disease score during the first EAE episode was recorded, and mice were considered recovered if they received a score <0.5 by day 23 post treatment initiation.” for “weekly).”
Experimental detail: EAE was induced in female C57BL/6 mice as described in Example 1.

Compound: COC(=O)/C=C/C(=O)N[C@@H]1CC[C@@]2(O)[C@H]3Cc4ccc(O)c5c4[C@@]2(CCN3CC2CC2)[C@H]1O5 [BFNA]
- recovery from paralysis (disease score) (10 mg/kg i.p. weekly from disease onset): does not enable recovery

Compound: Oc1ccc2c3c1O[C@H]1c4[nH]c5c(c4C[C@@]4(O)[C@@H](C2)N(CC2CC2)CC[C@]314)C[C@@]1(O)[C@H]2Cc3ccc(O)c4c3[C@@]1(CCN2CC1CC1)[C@H]5O4 [norBNI]
- effect on nalmefene-mediated recovery from paralysis (norBNI 10 mg/kg i.p. weekly with nalmefene 0.01 mg/kg i.p. daily): abolishes the ability of nalmefene to enable full recovery from paralysis; also recorded: abolishes the ability of nalmefene to enable and sustain recovery from paralysis

Compound: CN1CCC[C@@H]1CCO[C@](C)(c1ccccc1)c1ccc(Cl)cc1 [clemastine fumerate]
- number of days in recovery (sustained recovery) (nalmefene 0.01 mg/kg i.p. daily, clemastine fumerate 10 mg/kg i.p.): recovery is not sustained
